Assay results taken from PubChem BioAssay (NCI).
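In this assay, cells in 96-well plates receive the compound at five concentrations for 48 hours. Endpoints are linearly interpolated between the surrounding concentrations. Here, GI50 denotes the concentration required for 50% inhibition of growth. TGI: total growth inhibition.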

How the values were obtained:
Test in all cases: NCI tumour cell line growth inhibition, 48 h
786-0 renal = test system: 786-0 renal
A498 renal = test system: A498 renal
A549 NSCLC = test system: A549 NSCLC
ACHN renal = test system: ACHN renal
BT-549 breast = test system: BT-549 breast
CAKI-1 renal = test system: CAKI-1 renal
CCRF-CEM leukemia = test system: CCRF-CEM leukemia
COLO 205 colon = test system: COLO 205 colon
DU-145 prostate = test system: DU-145 prostate
EKVX NSCLC = test system: EKVX NSCLC
HCC-2998 colon = test system: HCC-2998 colon
HCT-116 colon = test system: HCT-116 colon
HCT-15 colon = test system: HCT-15 colon
HL-60(TB) leukemia = test system: HL-60(TB) leukemia
HOP-62 NSCLC = test system: HOP-62 NSCLC
HOP-92 NSCLC = test system: HOP-92 NSCLC
HS 578T breast = test system: HS 578T breast
IGROV1 ovarian = test system: IGROV1 ovarian
K-562 leukemia = test system: K-562 leukemia
KM12 colon = test system: KM12 colon
LOX IMVI melanoma = test system: LOX IMVI melanoma
M14 melanoma = test system: M14 melanoma
MALME-3M melanoma = test system: MALME-3M melanoma
MCF7 breast = test system: MCF7 breast
MDA-MB-231 breast = test system: MDA-MB-231 breast
MDA-MB-435 = test system: MDA-MB-435
MDA-MB-468 breast = test system: MDA-MB-468 breast
MOLT-4 leukemia = test system: MOLT-4 leukemia
NCI-H226 lung = test system: NCI-H226 lung
NCI-H23 lung = test system: NCI-H23 lung
NCI-H522 lung = test system: NCI-H522 lung
NCI/ADR-RES ovarian = test system: NCI/ADR-RES ovarian
OVCAR-3 ovarian = test system: OVCAR-3 ovarian
OVCAR-4 ovarian = test system: OVCAR-4 ovarian
OVCAR-5 ovarian = test system: OVCAR-5 ovarian
OVCAR-8 ovarian = test system: OVCAR-8 ovarian
PC-3 prostate = test system: PC-3 prostate
RPMI-8226 leukemia = test system: RPMI-8226 leukemia
RXF 393 renal = test system: RXF 393 renal
SF-268 CNS = test system: SF-268 CNS
SF-295 CNS = test system: SF-295 CNS
SF-539 CNS = test system: SF-539 CNS
SK-MEL-2 melanoma = test system: SK-MEL-2 melanoma
SK-MEL-28 melanoma = test system: SK-MEL-28 melanoma
SK-MEL-5 melanoma = test system: SK-MEL-5 melanoma
SK-OV-3 ovarian = test system: SK-OV-3 ovarian
SN12C renal = test system: SN12C renal
SNB-19 CNS = test system: SNB-19 CNS
SNB-75 CNS = test system: SNB-75 CNS
SW-620 colon = test system: SW-620 colon
TK-10 renal = test system: TK-10 renal
U251 CNS = test system: U251 CNS
UACC-257 melanoma = test system: UACC-257 melanoma
UACC-62 melanoma = test system: UACC-62 melanoma
UO-31 renal = test system: UO-31 renal

SMILES: O=C(NN1C(=O)/C(=C/C=C/c2ccc([N+](=O)[O-])o2)SC1=S)c1ccc(O)cc1
- GI50 (786-0 renal): 1780 nM
- TGI (786-0 renal): 3270 nM
- GI50 (A498 renal): 18800 nM
- TGI (A498 renal): 32800 nM
- GI50 (A549 NSCLC): 3780 nM
- TGI (A549 NSCLC): 16300 nM
- GI50 (ACHN renal): 1770 nM
- TGI (ACHN renal): 3220 nM
- GI50 (BT-549 breast): 1360 nM
- TGI (BT-549 breast): 2790 nM
- GI50 (CAKI-1 renal): 1500 nM
- TGI (CAKI-1 renal): 2900 nM
- GI50 (CCRF-CEM leukemia): 195 nM
- TGI (CCRF-CEM leukemia): 1810 nM
- GI50 (COLO 205 colon): 1730 nM
- TGI (COLO 205 colon): 3350 nM
- GI50 (DU-145 prostate): 2350 nM
- TGI (DU-145 prostate): 5790 nM
- GI50 (EKVX NSCLC): 1570 nM
- TGI (EKVX NSCLC): 3190 nM
- GI50 (HCC-2998 colon): 1780 nM
- TGI (HCC-2998 colon): 3320 nM
- GI50 (HCT-116 colon): 382 nM
- TGI (HCT-116 colon): 1570 nM
- GI50 (HCT-15 colon): 212 nM
- TGI (HCT-15 colon): 499 nM
- GI50 (HL-60(TB) leukemia): > 100000 nM
- TGI (HL-60(TB) leukemia): > 100000 nM
- GI50 (HOP-62 NSCLC): 1890 nM
- TGI (HOP-62 NSCLC): 3600 nM
- GI50 (HOP-92 NSCLC): 1630 nM
- TGI (HOP-92 NSCLC): 3690 nM
- GI50 (HS 578T breast): 2520 nM
- TGI (HS 578T breast): 8640 nM
- GI50 (IGROV1 ovarian): 1460 nM
- TGI (IGROV1 ovarian): 2820 nM
- GI50 (K-562 leukemia): > 100000 nM
- TGI (K-562 leukemia): > 100000 nM
- GI50 (KM12 colon): 1930 nM
- TGI (KM12 colon): 4290 nM
- GI50 (LOX IMVI melanoma): 185 nM
- TGI (LOX IMVI melanoma): 358 nM
- GI50 (M14 melanoma): 316 nM
- TGI (M14 melanoma): 1350 nM
- GI50 (MALME-3M melanoma): 246 nM
- TGI (MALME-3M melanoma): 558 nM
- GI50 (MCF7 breast): 1410 nM
- TGI (MCF7 breast): 3190 nM
- GI50 (MDA-MB-231 breast): 399 nM
- TGI (MDA-MB-231 breast): 1420 nM
- GI50 (MDA-MB-435): 1130 nM
- TGI (MDA-MB-435): 2510 nM
- GI50 (MDA-MB-468 breast): 1720 nM
- TGI (MDA-MB-468 breast): 3580 nM
- GI50 (MOLT-4 leukemia): > 100000 nM
- TGI (MOLT-4 leukemia): > 100000 nM
- GI50 (NCI-H226 lung): 690 nM
- TGI (NCI-H226 lung): 2280 nM
- GI50 (NCI-H23 lung): 1270 nM
- TGI (NCI-H23 lung): 2690 nM
- GI50 (NCI-H522 lung): 217 nM
- TGI (NCI-H522 lung): 498 nM
- GI50 (NCI/ADR-RES ovarian): 2200 nM
- TGI (NCI/ADR-RES ovarian): 5210 nM
- GI50 (OVCAR-3 ovarian): 1680 nM
- TGI (OVCAR-3 ovarian): 3140 nM
- GI50 (OVCAR-4 ovarian): 1860 nM
- TGI (OVCAR-4 ovarian): 4220 nM
- GI50 (OVCAR-5 ovarian): 1800 nM
- TGI (OVCAR-5 ovarian): 3530 nM
- GI50 (OVCAR-8 ovarian): 1300 nM
- TGI (OVCAR-8 ovarian): 3400 nM
- GI50 (PC-3 prostate): 2370 nM
- TGI (PC-3 prostate): 7230 nM
- GI50 (RPMI-8226 leukemia): 713 nM
- TGI (RPMI-8226 leukemia): 5340 nM
- GI50 (RXF 393 renal): 1560 nM
- TGI (RXF 393 renal): 2990 nM
- GI50 (SF-268 CNS): 1970 nM
- TGI (SF-268 CNS): 4340 nM
- GI50 (SF-295 CNS): 2040 nM
- TGI (SF-295 CNS): 4590 nM
- GI50 (SF-539 CNS): 1660 nM
- TGI (SF-539 CNS): 3120 nM
- GI50 (SK-MEL-2 melanoma): 1420 nM
- TGI (SK-MEL-2 melanoma): 2990 nM
- GI50 (SK-MEL-28 melanoma): 1670 nM
- TGI (SK-MEL-28 melanoma): 3100 nM
- GI50 (SK-MEL-5 melanoma): 1120 nM
- TGI (SK-MEL-5 melanoma): 2340 nM
- GI50 (SK-OV-3 ovarian): 2490 nM
- TGI (SK-OV-3 ovarian): 5960 nM
- GI50 (SN12C renal): 344 nM
- TGI (SN12C renal): 1630 nM
- GI50 (SNB-19 CNS): 1920 nM
- TGI (SNB-19 CNS): 3900 nM
- GI50 (SNB-75 CNS): 1310 nM
- TGI (SNB-75 CNS): 4380 nM
- GI50 (SW-620 colon): 307 nM
- TGI (SW-620 colon): 996 nM
- GI50 (TK-10 renal): 1830 nM
- TGI (TK-10 renal): 3510 nM
- GI50 (U251 CNS): 1750 nM
- TGI (U251 CNS): 3520 nM
- GI50 (UACC-257 melanoma): 1690 nM
- TGI (UACC-257 melanoma): 3500 nM
- GI50 (UACC-62 melanoma): 1050 nM
- TGI (UACC-62 melanoma): 2260 nM
- GI50 (UO-31 renal): 1510 nM
- TGI (UO-31 renal): 2910 nM
